Laboratory results as given in patent publication US20250313563A1, “GLYCOGEN SYNTHASE KINASE 3 INHIBITORS AND USES THEREOF” (The Broad Institute, Inc., priority 2022, published 2025).
Where two headings read alike, the source gives them in different places.

Columns and labels:
[1] = molecular target: GSK3α (GST-full length GSK3α) (Homo sapiens (Human), UniProt P49840); experiment: GSK3α TR-FRET kinase assay; assay type: biochemical; conditions: IC50
In short: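 Readout: anti-pSer641 Tb antibody/streptavidin-d2 signal after 60 min, expressed as 665/615 ratio and fitted versus log concentration for IC50. Enzyme: 1 nM GST-GSK3 (α or β), compound-preincubated 30 min. Conditions: pH 7.5 Tris buffer with MgCl2, DTT, BSA; ATP at 4 or 2 μM, or 1 mM; 100 min.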

[2] = molecular target: GSK3b (GST-full length GSK3b) (Homo sapiens (Human), UniProt P49841); experiment: GSK3b TR-FRET kinase assay; assay type: biochemical; conditions: IC50
Sequence of GSK3b (GST-full length GSK3b) (P49841 whole entry): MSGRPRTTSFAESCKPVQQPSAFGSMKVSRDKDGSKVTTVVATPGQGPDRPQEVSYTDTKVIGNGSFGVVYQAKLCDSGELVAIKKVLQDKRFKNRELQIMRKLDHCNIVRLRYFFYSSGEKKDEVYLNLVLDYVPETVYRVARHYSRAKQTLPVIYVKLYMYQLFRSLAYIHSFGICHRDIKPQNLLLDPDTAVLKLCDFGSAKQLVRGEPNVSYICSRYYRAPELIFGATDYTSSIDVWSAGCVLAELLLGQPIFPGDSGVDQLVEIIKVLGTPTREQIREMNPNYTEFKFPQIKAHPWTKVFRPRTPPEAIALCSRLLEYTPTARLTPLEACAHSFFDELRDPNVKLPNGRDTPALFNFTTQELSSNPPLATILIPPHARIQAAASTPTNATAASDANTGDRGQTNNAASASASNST
Procedure: TR-FRET Assay: The assay was performed in a white, 384 well, low volume, flat bottom plate (Grenier). After a 30 minute preincubation in assay buffer with the indicated concentration of compound, the kinase activity was initiated by the addition of the substrates. 1 nM GSK3α (GST-full length GSK3α [SignalChem G08-10G]) or 1 nM GSK3b (GST-full length GSK3b: [SignalChem G08-9G]) were then incubated at ambient temperature for 100 minutes in 10 μL of 50 mM Tris, pH 7.5, 20 mM MgCl2, 0.05 mM DTT, 100 μg/mL BSA and 1% DMSO, with 200 nM biotinylated peptide substrate (biotinylated and S645 phosphorylated glycogen synthase 631-650) and either 4 μM ATP (GSK3α, Table 16) or 2 μM ATP (GSK3b, Table 16) or 1 mM ATP (Table 17). The kinase activity was quenched with 2 μL of 250 mM EDTA. A 10 μL volume of 40 nM Strepavidin-d2, 2 nM Tb^2+-pSer641 antibody in TR-FRET Detection Buffer (Invitrogen) was then added. After 60 min at room temperature the plate was read on Envision plate reader using Ex: 340 nm, Em: 615 nm and […]. The normalized 665/615 Signal ratio versus log compound concentration was analyzed by XLFIT to yield IC50 values.

[3] = 1 nM GSK3α, 4 μM ATP, 30 minute preincubation, geometric mean, read-out: GSK3-A TR-FRET BIOCHEMICAL (TR-FRET), GMean
[4] = 1 nM GSK3b, 2 μM ATP, 30 minute preincubation, geometric mean, read-out: GSK3-B TR-FRET BIOCHEMICAL (TR-FRET), GMean
[5] = read-out: GSK3-A (TR-FRET 1 mM ATP), GMean, 1 mM ATP, geometric mean
[6] = read-out: GSK3-B (TR-FRET 1 mM ATP), GMean, 1 mM ATP, geometric mean

Sequence of GSK3α (GST-full length GSK3α) (P49840 whole entry): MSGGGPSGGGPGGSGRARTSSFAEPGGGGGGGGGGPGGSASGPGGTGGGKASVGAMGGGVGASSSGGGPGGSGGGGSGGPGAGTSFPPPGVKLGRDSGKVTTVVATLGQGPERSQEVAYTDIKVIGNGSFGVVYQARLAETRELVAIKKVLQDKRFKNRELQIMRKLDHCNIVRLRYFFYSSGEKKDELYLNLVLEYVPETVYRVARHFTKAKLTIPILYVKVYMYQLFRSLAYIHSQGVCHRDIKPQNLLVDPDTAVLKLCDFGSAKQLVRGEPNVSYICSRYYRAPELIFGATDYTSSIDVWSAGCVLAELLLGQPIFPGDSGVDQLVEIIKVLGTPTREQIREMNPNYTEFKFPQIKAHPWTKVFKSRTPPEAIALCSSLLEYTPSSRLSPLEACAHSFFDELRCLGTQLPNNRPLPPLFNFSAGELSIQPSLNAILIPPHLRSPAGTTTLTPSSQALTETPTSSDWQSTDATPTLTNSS

Structure (SMILES) | IC50 [1, 3] | IC50 [2, 4] | also measured
CC(C)(C)Cc1[nH]nc2c1C1(CCc3cccc(F)c31)C1=C(CC(C)(C)CC1=O)N2 (centres unmarked) [Compound 801351] | > 1.67 µM | 0.1 to 1 µM | –
CC1(C)CC(=O)C2=C(C1)Nc1n[nH]cc1[C@@]2(C)c1cccc(-c2ccccc2)c1 [Compound 801366] | > 5 µM | > 5 µM | –
CCC1(c2cccc(-c3ccccc3)c2)C2=C(CC(C)(C)CC2=O)Nc2n[nH]cc21 (centres unmarked) [Compound 801369] | > 5 µM | > 5 µM | –
CCC1(c2ccccc2)C2=C(CSCC2=O)Nc2n[nH]cc21 (centres unmarked) [Compound 801406] | – | – | IC50 ([1]; 1 nM GSK3α, 4 μM ATP, 30 minute preincubation, read-out: GSK3-A TR-FRET BIOCHEMICAL (TR-FRET)): 1 to 5 µM; IC50 ([2]; 1 nM GSK3b, 2 μM ATP, 30 minute preincubation, read-out: GSK3-B TR-FRET BIOCHEMICAL (TR-FRET)): > 5 µM
CC[C@@]1(c2cccc(-c3ccncc3)c2)C2=C(CC(C)(C)CC2=O)Nc2n[nH]cc21 [Compound 801412] | > 5 µM | > 5 µM | –
CC1(C)CC(=O)C2=C(C1)Nc1n[nH]c(C(F)(F)F)c1C21CCc2c(F)cccc21 (centres unmarked) [Compound 806568] | 1 to 5 µM | 0.1 to 1 µM | –
CCC1(c2cccc(N3CCNCC3)c2)C2=C(CC(C)(C)CC2=O)Nc2n[nH]cc21 (centres unmarked) [Compound 806604] | > 1.67 µM | > 5 µM | –
CC1(C)CC(=O)C2=C(C1)Nc1n[nH]cc1C2(C)c1cc(Cl)ccc1Cl (centres unmarked) [Compound 806605] | 1 to 5 µM | > 5 µM | –
CC[C@@]1(c2ccccc2)C2=C(C[C@@H](C(F)(F)F)CC2=O)Nc2n[nH]cc21 [Compound 806607] | > 5 µM | > 5 µM | –
CC[C@@]1(c2ccccc2)C2=C(C[C@H](C(F)(F)F)CC2=O)Nc2n[nH]cc21 [Compound 806611] | > 5 µM | > 5 µM | –
CC1(C)CC(=O)C2=C(C1)Nc1n[nH]cc1[C@@]21CCc2c(F)cccc21 [Compound 806632] | > 1.67 µM | > 5 µM | –
CC[C@]1(c2cccc(N(C)C(C)=O)c2)C2=C(CC(C)(C)CC2=O)Nc2n[nH]cc21 [Compound 810359] | > 5 µM | > 5 µM | –
CCC1(c2cccc(COC)c2)C2=C(CC(C)(C)CC2=O)Nc2n[nH]cc21 (centres unmarked) [Compound 810362] | > 1.67 µM | > 5 µM | –
CC[C@@]1(c2cccc(N3CCOCC3)c2)C2=C(CC(C)(C)CC2=O)Nc2n[nH]cc21 [Compound 810364] | > 5 µM | > 5 µM | –
CCC1(c2cccc(Br)c2)C2=C(CC(C)(C)CC2=O)Nc2n[nH]c(C(F)(F)F)c21 (centres unmarked) [Compound 810365] | > 1.67 µM | > 1.67 µM | –
CC[C@@]1(c2cccc(N3CCCCC3)c2)C2=C(CC(C)(C)CC2=O)Nc2n[nH]cc21 [Compound 810371] | > 5 µM | > 5 µM | –
CC[C@]1(c2cccc(C(C)C)c2)C2=C(CC(C)(C)CC2=O)Nc2n[nH]cc21 [Compound 810375] | 1 to 5 µM | > 5 µM | –
CC1(C)CC(=O)C2=C(C1)Nc1n[nH]cc1C2(C)c1cc(Cl)ccc1F (centres unmarked) [Compound 810377] | 0.1 to 1 µM | 1 to 5 µM | –
CCC1(c2cccc(N3CCN(C)CC3)c2)C2=C(CC(C)(C)CC2=O)Nc2n[nH]cc21 (centres unmarked) [Compound 810379] | > 1.67 µM | > 5 µM | –
CCC1(c2cccc(C(F)(F)F)c2)C2=C(CC(C)CC2=O)Nc2n[nH]cc21 (centres unmarked) [Compound 810452] | 0.1 to 1 µM | 1 to 5 µM | –
CCC1(c2cccc(C(F)(F)F)c2)C2=C(CC(C)CC2=O)Nc2n[nH]cc21 (centres unmarked) [Compound 810453] | > 5 µM | > 5 µM | –
CC1(C)CC(=O)C2=C(C1)Nc1n[nH]c(Br)c1C21CCNc2ccccc21 (centres unmarked) [Compound 810460] | 1 to 5 µM | > 5 µM | –
CCC1(c2cccc(C(F)(F)F)c2)C2=C(CC(C)(C)CC2=O)Nc2n[nH]c(Br)c21 (centres unmarked) [Compound 810464] | 1 to 5 µM | 1 to 5 µM | –
CCC1(CC)C2=C(CC(C)(C)CC2=O)Nc2n[nH]cc21 [Compound 810505] | – | – | IC50 ([1]; 1 nM GSK3α, 4 μM ATP, 30 minute preincubation, Table 16, read-out: GSK3-A TR-FRET BIOCHEMICAL (TR-FRET)): 1 to 5 µM; IC50 ([2]; 1 nM GSK3b, 2 μM ATP, 30 minute preincubation, Table 16, read-out: GSK3-B TR-FRET BIOCHEMICAL (TR-FRET)): > 5 µM

Now from value to molecule, other results behind:

IC50 [1, 3] | IC50 [2, 4] | Structure (SMILES) | also measured
0.1 to 1 µM | 0.1 to 1 µM | CCC1(c2cccc(N3CCCCC3)c2)C2=C(CC(C)(C)CC2=O)Nc2n[nH]cc21 (centres unmarked) [Compound 801320] | –
≤ 0.1 µM | 0.1 to 1 µM | CCC1(c2cccc(C(C)C)c2)C2=C(CC(C)(C)CC2=O)Nc2n[nH]cc21 (centres unmarked) [Compound 801322] | –
≤ 0.1 µM | ≤ 0.1 µM | CCC1(c2cccc(Br)c2)C2=C(CC(C)(C)CC2=O)Nc2n[nH]c(C(F)(F)F)c21 (centres unmarked) [Compound 801324] | –
0.1 to 1 µM | > 1.67 µM | CC1(C)CC(=O)C2=C(C1)Nc1n[nH]cc1C21CCc2c(F)cccc21 (centres unmarked) [Compound 801357] | –
≤ 0.1 µM | ≤ 0.1 µM | CC1(C)CC(=O)C2=C(C1)Nc1n[nH]c(Br)c1C21CCc2c(F)cccc21 (centres unmarked) [Compound 801358] | –
≤ 0.1 µM | 0.1 to 1 µM | CC1(C)CC(=O)C2=C(C1)Nc1n[nH]cc1[C@]2(C)c1cccc(-c2ccccc2)c1 [Compound 801367] | –
≤ 0.1 µM | ≤ 0.1 µM | CCC1(c2cccc(-c3ccncc3)c2)C2=C(CC(C)(C)CC2=O)Nc2n[nH]cc21 (centres unmarked) [Compound 801413] | IC50 [1, 5]: 0.1 to 1 µM; IC50 [2, 6]: 1 to 5 µM
≤ 0.1 µM | ≤ 0.1 µM | CCC1(c2cccc(-c3cnn(C)c3)c2)C2=C(CC(C)(C)CC2=O)Nc2n[nH]c(C(F)(F)F)c21 (centres unmarked) [Compound 801445] | –
0.1 to 1 µM | > 1.67 µM | CCC1(c2cccc(OCCOC)c2)C2=C(CC(C)(C)CC2=O)Nc2n[nH]cc21 (centres unmarked) [Compound 801446] | –
0.1 to 1 µM | 1 to 5 µM | CCC1(c2cccc(OC)c2)C2=C(CC(C)(C)CC2=O)Nc2n[nH]cc21 (centres unmarked) [Compound 801447] | –
≤ 0.1 µM | 0.1 to 1 µM | CCC1(c2cccc(OC(C)C)c2)C2=C(CC(C)(C)CC2=O)Nc2n[nH]cc21 (centres unmarked) [Compound 801448] | –
≤ 0.1 µM | ≤ 0.1 µM | CCC1(c2cccc(C(F)(F)F)c2)C2=C(CC(C)(C)CC2=O)Nc2n[nH]c(Br)c21 (centres unmarked) [Compound 802358] | –
≤ 0.1 µM | 0.1 to 1 µM | Cc1cccc2c1CCC21C2=C(CC(C)(C)CC2=O)Nc2n[nH]cc21 (centres unmarked) [Compound 806603] | –
0.1 to 1 µM | > 1.67 µM | CC[C@]1(c2ccccc2)C2=C(C[C@@H](C(F)(F)F)CC2=O)Nc2n[nH]cc21 [Compound 806608] | –
0.1 to 1 µM | > 1.67 µM | CC[C@]1(c2ccccc2)C2=C(C[C@H](C(F)(F)F)CC2=O)Nc2n[nH]cc21 [Compound 806609] | –
≤ 0.1 µM | 0.1 to 1 µM | CC1(C)CC(=O)C2=C(C1)Nc1n[nH]cc1[C@]21CCc2c(F)cccc21 [Compound 806633] | –
≤ 0.1 µM | 0.1 to 1 µM | CCC1(c2cccc(-c3ccncn3)c2)C2=C(CC(C)(C)CC2=O)Nc2n[nH]cc21 (centres unmarked) [Compound 806637] | –
0.1 to 1 µM | 1 to 5 µM | CC1(C)CC(=O)C2=C(C1)Nc1n[nH]c(Br)c1[C@@]21CCc2c(F)cccc21 [Compound 806938] | –
≤ 0.1 µM | ≤ 0.1 µM | CC1(C)CC(=O)C2=C(C1)Nc1n[nH]c(Br)c1[C@]21CCc2c(F)cccc21 [Compound 806939] | –
≤ 0.1 µM | 0.1 to 1 µM | CCC1(c2cccc(COC)c2)C2=C(CC(C)(C)CC2=O)Nc2n[nH]cc21 (centres unmarked) [Compound 810360] | –
0.1 to 1 µM | 0.1 to 1 µM | CCC1(c2cccc(N3CCOCC3)c2)C2=C(CC(C)(C)CC2=O)Nc2n[nH]cc21 (centres unmarked) [Compound 810363] | –
≤ 0.1 µM | ≤ 0.1 µM | CC[C@@]1(c2cccc(C(C)C)c2)C2=C(CC(C)(C)CC2=O)Nc2n[nH]cc21 [Compound 810373] | IC50 [1, 5]: 0.1 to 1 µM; IC50 [2, 6]: 1 to 5 µM
≤ 0.1 µM | 0.1 to 1 µM | CC1(C)CC(=O)C2=C(C1)Nc1n[nH]cc1C2(C)c1cc(C(F)(F)F)ccc1F (centres unmarked) [Compound 810376] | –
≤ 0.1 µM | ≤ 0.1 µM | CCC1(c2cccc(C(F)(F)F)c2)C2=C(CC(C)CC2=O)Nc2n[nH]cc21 (centres unmarked) [Compound 810451] | –
≤ 0.1 µM | ≤ 0.1 µM | CCC1(c2cccc(C(F)(F)F)c2)C2=C(CC(C)(C)CC2=O)Nc2n[nH]c(Br)c21 (centres unmarked) [Compound 810466] | IC50 [1, 5]: ≤ 0.1 µM; IC50 [2, 6]: 0.1 to 1 µM
